Results: patent US20220048884A1, “NRF2 ACTIVATOR” (BIOGEN MA INC., priority 2017, published 2022)

How the values were obtained:
human astrocytes [1] = assay: Cytoprotection of astrocytes against sodium arsenite; format: cell-based; settings: compound 20 hrs before 25 μM sodium arsenite, then 22 hrs
Method: (§1) Human astrocytes from ScienCell (cat #1820) were grown in astrocyte medium per supplier's instructions. Cells cultured for no more than two passages were plated in 96-well plates at 40,000 cells per well for gene transcription experiments and 20,000 cell per well for glutathione and cytoprotection assays.
Astrocytes were treated for 20 hrs as above, then the medium was removed and replaced with serum- and supplement-free growth medium with and without 25 μM sodium arsenite. After 22 hrs., cells were washed with PBS, fixed with 4% paraformaldehyde/4% sucrose in PBS, stained with 4′,6-Diamidino-2-phenylindole dihydrochloride (DAPI) and counted by quantitative fluorescence microscopy.

Nrf2 target genes [2] = assay: Nrf2 target gene expression (qRT-PCR) in tissues of mice after oral dosing; format: in vivo, C57BL/6 mice; settings: wild-type mice, 10 and 50 mg/kg single oral dose, 2 hours after dosing
Excerpt: RNA was extracted in chloroform and the aqueous phase was mixed with an equal volume of 70% ethanol. Extracted RNA was applied to RNeasy 96 plates and purified by the spin method according to the manufacturer's protocol (RNeasy 96 Universal Tissue Protocol, QIAgen, Hilden Germany).

Nrf2 target genes [3] = assay: Gene expression (RT-PCR) in cultured human astrocytes; format: cell-based; settings: 20 hours, increasing concentrations
Method: as §1
Primary cultures of human spinal cord astrocytes were treated with compound for 20 hours. The cells were then rinsed in PBS, lysed, and processed for RNA using Ambion Tagman™ Cells-to-CT kit. The resulting cDNA was stored at −20° C. until analysis by real-time polymerase chain reaction (RT-PCR). The cDNA mixture from Cells-to-CT was diluted 5× before loading into PCR. This yields results similar to using 6 ng of purified cDNA. RT-PCR was performed on Life Technologies QuantStudio platform using OpenArray technique according to manufacturer's protocol using the following Taqman primers: […]
The comparative CT method was used to calculate fold changes using ThermoFisher Cloud software for PCR analysis. Samples were compared to vehicle control.

human astrocytes [4] = assay: Glutathione assay in human astrocytes (GSH-Glo); format: cell-based; settings: 20-hr exposure
Method: as §1
Intracellular glutathione was measured after a 20-hr exposure to test compounds by a two-step process. First, cells were lysed and luciferin quantitatively generated from substrate, catalyzed by glutathione-S-transferase in the presence of analyte glutathione. Then luciferin was assayed using stabilized luciferase to produce a luminescent signal proportional to the concentration of glutathione (Promega GSH-Glo, cat #V6912).

NRF2 = assay: PathHunter Nuclear Translocation assay (DiscoverX), agonist format; format: cell-based; settings: 6 hours incubation, 10 concentrations, 30 μM top concentration
Excerpt: Vehicle concentration was 1%.
Microplates were read following signal generation with a PerkinElmer Envision™ instrument for chemiluminescent signal detection.

CCn1nnc2c(C)c([C@@H](CC(=O)O)c3ccc4c(c3)CN(C(=O)c3c(C)c(C)cc(C)c3C)CC4)ccc21 [Example 47-Ent1, (S)-3-(1-ethyl-4-methyl-1H-benzo[d][1,2,3]triazol-5-yl)-3-(2-(2,3,5,6-tetramethylbenzoyl)-1,2,3,4-tetrahydroisoquinolin-7-yl)propanoic acid]
protection from oxidative stress-induced cell death (human astrocytes [1]): protects cells from oxidative stress-induced cell death
expression of Osgin1 in brain (Nrf2 target genes [2]): increases the expression
transcription of GCLC (Nrf2 target genes [3]): induces transcription
transcription of HMOX1 (Nrf2 target genes [3]): induces transcription
transcription of NQO1 (Nrf2 target genes [3]): induces transcription
transcription of OSGIN1 (Nrf2 target genes [3]): induces transcription
intracellular glutathione (human astrocytes [4]): increases intracellular glutathione

CCn1nnc2c(C)c([C@H](c3ccc4c(c3)CN(C(=O)c3ccc(C)c(C)c3)CC4)[C@H](C)C(=O)ON)ccc21 [Example 133, amino (2S,3S)-3-[2-(3,4-dimethylbenzoyl)-3,4-dihydro-1H-isoquinolin-7-yl]-3-(1-ethyl-4-methyl-benzotriazol-5-yl)-2-methyl-propanoate]
EC50 (NRF2): < 100 nM
